Measurements from patent US7932262B2 (Novartis AG, priority 2006, dated 2011).
Read-outs that look alike come from different tables or passages of the source.

What was measured:
[1] = biological target: T1, PDK1 kinase (Homo sapiens, UniProt O15530); experiment: PDK1 Kinase Alpha Screen Assay; format: biochemical; conditions: PDK1 Kinase Alpha Screen Assay; read-out: PDK1 IC50
T1 sequence (O15530 1-556): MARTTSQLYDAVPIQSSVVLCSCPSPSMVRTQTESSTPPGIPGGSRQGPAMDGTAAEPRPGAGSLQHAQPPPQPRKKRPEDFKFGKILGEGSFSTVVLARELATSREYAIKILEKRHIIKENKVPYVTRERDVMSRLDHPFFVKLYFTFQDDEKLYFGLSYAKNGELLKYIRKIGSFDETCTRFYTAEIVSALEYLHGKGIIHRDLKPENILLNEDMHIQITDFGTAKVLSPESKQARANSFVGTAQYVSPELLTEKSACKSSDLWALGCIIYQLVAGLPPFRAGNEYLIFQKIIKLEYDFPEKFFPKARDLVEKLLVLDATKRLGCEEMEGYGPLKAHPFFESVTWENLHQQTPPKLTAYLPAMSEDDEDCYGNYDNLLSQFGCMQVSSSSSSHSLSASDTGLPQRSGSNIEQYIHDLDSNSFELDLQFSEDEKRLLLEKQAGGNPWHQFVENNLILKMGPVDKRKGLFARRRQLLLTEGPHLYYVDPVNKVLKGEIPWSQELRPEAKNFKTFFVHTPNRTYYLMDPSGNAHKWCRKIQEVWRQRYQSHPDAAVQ
How it was run: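 Biotinylated PDK1-4 peptide (50 nM) phosphorylated by PDK1 with 10 uM ATP in pH 7.5 Tris/MgCl2/DTT buffer, 2.5% DMSO, for 3-18 hours. EDTA stop, then AlphaScreen detection with phospho-(Ser/Thr) PKA substrate antibody and protein A/streptavidin beads after overnight room-temperature development.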

[2] = tested on: A2780 cells; experiment: Cell Proliferation Assay (Cell Titer Glo), A2780; format: cell-based; conditions: Homo sapiens, read-out: CPEC50 A2780
How it was run: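 Cells seeded at 1000/well, allowed to adhere 3-5 h, then exposed to DMSO-dissolved compounds for 3 days at 37° C., 5% CO2. Medium replaced before Cell Titer Glo addition; luminescence read after 10 min.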

[3] = Cell Proliferation Assay, A2780
[4] = cell proliferation, A2780 cells

| IC50 [1] [µM] | EC50 [2, 3] [µM] | EC50 [2, 4] [µM] | Structure (SMILES) |
| --- | --- | --- | --- |
| 5 to 10 | 5 to 10 | – | CC(C)(C(N)=O)C(=O)NCCOc1cccc2cnc(Nc3ccccc3)nc12 [Compound 508, 2,2-dimethyl-N1-(2-(2-(phenylamino)quinazolin-8-yloxy)ethyl)malonamide] |
| < 5 | < 5 | – | NS(=O)(=O)c1ccc(Nc2ncc3cccc(OCCN4CCOCC4)c3n2)cc1 [Compound 510, 4-(8-(2-mropholinoethoxy)quinazolin-2-ylamino)benzenesulfonamide] |
| < 5 | < 5 | – | CC(=O)Nc1ccc(COc2cccc3cnc(Nc4ccc(S(N)(=O)=O)cc4)nc23)cc1 [Compound 514, N-(4-((2-(4-sulfamoylphenylamino)quinazolin-8-yloxy)methyl)phenyl)acetamide] |
| 5 to 10 | 5 to 10 | – | NS(=O)(=O)c1ccc(Nc2ncc3cccc(OCC(=O)N4CCOCC4)c3n2)cc1 [Compound 518, 4-(8-(2-morpholino-2-oxoethoxy)quinazolin-2-ylamino)benzenesulfonamide] |
| 10 to 25 | < 5 | – | Cc1cc(S(N)(=O)=O)ccc1Nc1ncc2cccc(OC(C)C)c2n1 [Compound 562, 4-(8-isopropoxyquinazolin-2-ylamino)-3-methylbenzenesulfonamide] |
| < 5 | < 5 | – | NC(=O)c1ccc2cnc(Nc3ccc(S(N)(=O)=O)cc3)nc2c1 [Compound 564, 2-(4-sulfamoylphenylamino)quinazoline-7-carboxamide] |
| 5 to 10 | 5 to 10 | – | NS(=O)(=O)c1ccc(Nc2ncc3cccc(C(=O)O)c3n2)cc1 [Compound 622, 2-(4-sulfamoylphenylamino)quinazoline-8-carboxylic acid] |
| < 5 | < 5 | – | CC(C)NC(=O)c1cccc2cnc(Nc3ccc(S(N)(=O)=O)cc3)nc12 [Compound 624, N-isopropyl-2-(4-sulfamoylphenylamino)quinazoline-8-carboxamide] |
| < 5 | < 5 | – | COc1ccc2cnc(Nc3ccc(S(N)(=O)=O)cc3)nc2c1 [Compound 629, 4-(7-methoxyquinazolin-2-ylamino)benzenesulfonamide] |
| < 5 | – | < 5 | NS(=O)(=O)c1ccc(Nc2ncc3ccc(-c4ccnc(N5CCOCC5)c4)cc3n2)cc1 [Compound 852, 4-(7-(2-morpholinopyridin-4-yl)quinazolin-2-ylamino)benzenesulfonamide] |
| < 5 | – | < 5 | NS(=O)(=O)c1ccc(Nc2ncc3ccc(-c4cccnc4)c(OC4CCNCC4)c3n2)cc1 [Compound 853, 4-(8-(piperidin-4-yloxy)-7-(pyridin-3-yl)quinazolin-2-ylamino)benzenesulfonamide] |
| < 5 | – | < 5 | Cn1cc(-c2ccc3cnc(Nc4ccc(S(N)(=O)=O)cc4)nc3c2OC2CCNCC2)cn1 [Compound 860, 4-(7-(1-methyl-1H-pyrazol-4-yl)-8-(piperidin-4-yloxy)quinazolin-2-ylamino)benzenesulfonamide] |

The next lines start with the compound.

| Structure (SMILES) | IC50 [1] [µM] | EC50 [2, 3] [µM] | EC50 [2, 4] [µM] |
| --- | --- | --- | --- |
| NCCOc1cccc2cnc(Nc3ccccc3)nc12 [Compound 507, 8-(2-aminoethoxy)-N-phenylquinazolin-2-amine] | < 5 | 5 to 10 | – |
| NC(=O)c1cccc(COc2cccc3cnc(Nc4ccc(S(N)(=O)=O)cc4)nc23)c1 [Compound 513, 3-((2-(4-sulfamoylphenylamino)quinazolin-8-yloxy)methyl)benzamide] | < 5 | < 5 | – |
| CNC(=O)c1ccc(Nc2ncc3cccc(OC(C)C)c3n2)cc1 [Compound 515, 4-(8-isopropoxyquinazolin-2-ylamino)-N-methylbenzamide] | < 5 | < 5 | – |
| CC(C)NC(=O)c1ccc(Nc2ncc3cccc(OC(C)C)c3n2)cc1 [Compound 516, 4-(8-isopropoxyquinazolin-2-ylamino)-N-isopropylbenzamide] | < 5 | < 5 | – |
| CNS(=O)(=O)c1ccc(Nc2ncc3cccc(OC(C)C)c3n2)cc1 [Compound 517, 4-(8-isopropoxyquinazolin-2-ylamino)-N-methylbenzenesulfonamide] | < 5 | < 5 | – |
| CC(C)Oc1cccc2cnc(Nc3ccc(S(C)(=O)=O)cc3)nc12 [Compound 554, 8-isopropoxy-N-(4-(methylsulfonyl)phenyl)quinazolin-2-amine] | < 5 | < 5 | – |
| CC(C)Oc1cccc2cnc(Nc3cccc(S(C)(=O)=O)c3)nc12 [Compound 555, 8-isopropoxy-N-(3-(methylsulfonyl)phenyl)quinazolin-2-amine] | < 5 | < 5 | – |
| CC(C)Oc1cccc2cnc(Nc3cccc(S(N)(=O)=O)c3)nc12 [Compound 556, 3-(8-isopropoxyquinazolin-2-ylamino)benzenesulfonamide] | < 5 | < 5 | – |
| NS(=O)(=O)c1ccc(Nc2ncc3ccc(C(=O)O)cc3n2)cc1 [Compound 559, 2-(4-sulfamoylphenylamino)quinazoline-7-carboxylic acid] | < 5 | 5 to 10 | – |
| CNC(=O)c1ccc2cnc(Nc3ccc(S(N)(=O)=O)cc3)nc2c1 [Compound 561, N-methyl-2-(4-sulfamoylphenylamino)quinazoline-7-carboxamide] | < 5 | < 5 | – |
| NC(=O)c1ccc(COc2cccc3cnc(Nc4ccc(S(N)(=O)=O)cc4)nc23)cc1 [Compound 628, 4-((2-(4-sulfamoylphenylamino)quinazolin-8-yloxy)methyl)benzamide] | < 5 | 5 to 10 | – |
| CN(C)CCOc1ccc2cnc(Nc3ccc(S(N)(=O)=O)cc3)nc2c1 [Compound 630, 4-(7-(2-(dimethylamino)ethoxy)quinazolin-2-ylamino)benzenesulfonamide] | < 5 | 5 to 10 | – |
| NS(=O)(=O)c1ccc(Nc2ncc3ccc(OCC4CCNCC4)cc3n2)cc1 [Compound 631, 4-(7-(piperidin-4-ylmethoxy)quinazolin-2-ylamino)benzenesulfonamide] | < 5 | < 5 | – |
| NS(=O)(=O)c1ccc(Nc2ncc3ccc(OCCC4CCNCC4)cc3n2)cc1 [Compound 632, 4-(7-(2-(piperidin-4-yl)ethoxy)quinazolin-2-ylamino)benzenesulfonamide] | < 5 | < 5 | – |
| CC(C)Cn1cc(-c2ccc3cnc(Nc4ccc(S(N)(=O)=O)cc4)nc3c2)cn1 [Compound 849, 4-(7-(1-isobutyl-1H-pyrazol-4-yl)quinazolin-2-ylamino)benzenesulfonamide] | < 5 | – | < 5 |
| NS(=O)(=O)c1ccc(Nc2ncc3ccc(-c4ccnc(NCCN5CCCC5)c4)cc3n2)cc1 [Compound 850, 4-(7-(2-(2-(pyrrolidin-1-yl)ethylamino)pyridin-4-yl)quinazolin-2-ylamino)benzenesulfonamide] | < 5 | – | 5 to 10 |
| NS(=O)(=O)c1ccc(Nc2ncc3ccc(-c4ccnc(N5CCCC5)c4)cc3n2)cc1 [Compound 851, 4-(7-(2-(pyrrolidin-1-yl)pyridin-4-yl)quinazolin-2-ylamino)benzenesulfonamide] | 5 to 10 | – | < 5 |
| NC(=O)c1ccc(-c2ccc3cnc(Nc4ccc(S(N)(=O)=O)cc4)nc3c2OC2CCNCC2)cc1 [Compound 854, 4-(8-(piperidin-4-yloxy)-2-(4-sulfamoylphenylamino)quinazolin-7-yl)benzamide] | < 5 | – | 5 to 10 |
| NS(=O)(=O)c1ccc(Nc2ncc3ccc(-c4ccncc4)c(OC4CCNCC4)c3n2)cc1 [Compound 855, 4-(8-(piperidin-4-yloxy)-7-(pyridin-4-yl)quinazolin-2-ylamino)benzenesulfonamide] | < 5 | – | 5 to 10 |
| Nc1ccc(-c2ccc3cnc(Nc4ccc(S(N)(=O)=O)cc4)nc3c2OC2CCNCC2)cn1 [Compound 856, 4-(7-(6-aminopyridin-3-yl)-8-(piperidin-4-yloxy)quinazolin-2-ylamino)benzenesulfonamide] | < 5 | – | < 5 |
| Nc1ncc(-c2ccc3cnc(Nc4ccc(S(N)(=O)=O)cc4)nc3c2OC2CCNCC2)cn1 [Compound 857, 4-(7-(2-aminopyrimidin-5-yl)-8-(piperidin-4-yloxy)quinazolin-2-ylamino)benzenesulfonamide] | < 5 | – | 5 to 10 |
| COc1cncc(-c2ccc3cnc(Nc4ccc(S(N)(=O)=O)cc4)nc3c2OC2CCNCC2)c1 [Compound 858, 4-(7-(5-methoxypyridin-3-yl)-8-(piperidin-4-yloxy)quinazolin-2-ylamino)benzenesulfonamide] | < 5 | – | < 5 |
| NS(=O)(=O)c1ccc(Nc2ncc3ccc(-c4cn[nH]c4)c(OC4CCNCC4)c3n2)cc1 [Compound 859, 4-(8-(piperidin-4-yloxy)-7-(1H-pyrazol-4-yl)quinazolin-2-ylamino)benzenesulfonamide] | < 5 | – | < 5 |
